Test results published in US9540345B2, “Antiviral compounds” (priority 2013, dated 2017).
pEC50: −log10 of the molar value. Read-outs that look alike come from different tables or passages of the source.

Key:
[1] = tested on: pseudotyped HCV GT1b particles (HCVpp); assay: microbe, parasite or virus in culture; type: cell-based, HCV GT1b Con1 strain; details: for EC50: Hepatitis C virus, GT1B, 72 h, read-out: HCVpp GT-1b (EC50, μM); for pEC50: read-out: HCVpp GT-1b (EC50)
[2] = tested on: pseudotyped VSV G particles (VSVpp); assay: microbe, parasite or virus in culture; type: cell-based, vesicular stomatitis virus; details: for EC50: Vesicular stomatitis virus, 72 h, read-out: VSVpp (EC50, μM); for pEC50: read-out: VSVpp (EC50)

CS(=O)(=O)Nc1ccc(-c2c(Cl)cc(Nc3n[nH]c(N)n3)cc2Cl)cn1 [Compound 8, N-{5-[4-(5-Amino-1H-[1,2,4]triazol-3-ylamino)-2,6-dichloro-phenyl]-pyridin-2-yl}-methanesulfonamide]
EC50 [1]: 0.386 µM | EC50 [2]: ≥ 10 µM

NCC1(CO)CN(c2c(Cl)cc(Nc3nc(N)n[nH]3)cc2Cl)C1 [Compound 13, {3-Aminomethyl-1-[4-(5-amino-2H-[1,2,4]triazol-3-ylamino)-2,6-dichlorophenyl]-azetidin-3-yl}-methanol]
EC50 [1]: 10 µM | EC50 [2]: ≥ 10 µM

Nc1ccc(-c2c(Cl)cc(Nc3n[nH]c(N)n3)cc2Cl)cn1 [Compound 4, N*3*-[4-(6-Amino-pyridin-3-yl)-3,5-dichloro-phenyl]-1H-[1,2,4]triazole-3,5-diamine]
EC50 [1]: 0.173 µM | EC50 [2]: 1.4 µM

Nc1nc(Nc2cc(Cl)c(-c3cc[nH]c(=O)c3)c(Cl)c2)n[nH]1 [Compound 7, 4-[4-(5-Amino-1H-[1,2,4]triazol-3-ylamino)-2,6-dichloro-phenyl]-1H-pyridin-2-one]
EC50 [1]: 0.809 µM | EC50 [2]: ≥ 10 µM

Nc1nc(Nc2cc(Cl)c(-c3ccc(C(F)(F)F)nc3)c(Cl)c2)n[nH]1 [Compound 41, N-3-[3,5-Dichloro-4-(6-trifluoromethyl-pyridin-3-yl)-phenyl]-1H-[1,2,4]triazole-3,5-diamine]
EC50 [1]: 0.703 µM | EC50 [2]: 32.6 µM

Nc1nc(Nc2cc(Cl)c(-c3cc[nH]n3)c(Cl)c2)n[nH]1 [Compound 38, N-3-[3,5-Dichloro-4-(1H-pyrazol-3-yl)-phenyl]-1H-[1,2,4]triazole-3,5-diamine]
EC50 [1]: 3.39 µM | EC50 [2]: 35.8 µM

Nc1nc(Nc2cc(Cl)c(-c3cccnc3)c(Cl)c2)n[nH]1 [Compound 37, N-3-(3,5-Dichloro-4-pyridin-3-yl-phenyl)-1H-[1,2,4]triazole-3,5-diamine]
EC50 [1]: 0.413 µM | EC50 [2]: 8.1 µM

CC(C)(C)OC(=O)N1CC=C(c2c(Cl)cc(Nc3n[nH]c(N)n3)cc2Cl)CC1 [Compound 18, tert-Butyl 4-(4-(5-amino-1H-1,2,4-triazol-3-ylamino)-2,6-dichlorophenyl)-5,6-dihydropyridine-1(2H)-carboxylate]
EC50 [1]: 0.088 µM | EC50 [2]: ≥ 10 µM

N3-(3-Chloro-4-(1-methyl-1H-tetrazol-5-yl)phenyl)-1H-1,2,4-triazole-3,5-diamine [Compound 15]
pEC50 [1]: 5.17

CS(=O)(=O)c1ccc(-c2c(Cl)cc(Nc3nc(N)n[nH]3)cc2Cl)cn1 [Compound 11, N^5-(3,5-Dichloro-4-(6-methanesulfonyl-pyridin-3-yl)-phenyl)-1H-[1,2,4]-triazole-3,5-diamine]
EC50 [1]: 0.271 µM | EC50 [2]: 2.2 µM

COc1ccc(-c2c(Cl)cc(Nc3n[nH]c(N)n3)cc2Cl)cn1 [Compound 1, N*3*-[3,5-Dichloro-4-(6-methoxy-pyridin-3-yl)-phenyl]-1H-[1,2,4]triazole-3,5-diamine]
EC50 [1]: 0.767 µM | EC50 [2]: 3.7 µM

Nc1nc(Nc2cc(Cl)c(-c3ccc(=O)[nH]c3)c(Cl)c2)n[nH]1 [Compound 3, 5-[4-(5-Amino-1H-[1,2,4]triazol-3-ylamino)-2,6-dichloro-phenyl]-1H-pyridin-2-one]
EC50 [1]: 0.364 µM | EC50 [2]: ≥ 10 µM

CC(C)(C)OC(=O)N1CC2(C1)CN(c1c(Cl)cc(Nc3nc(N)n[nH]3)cc1Cl)C2 [Compound 12, 6-[4-(5-Amino-2H-[1,2,4]triazol-3-ylamino)-2,6-dichlorophenyl]-2,6-diaza-spiro[3.3]heptane-2-carboxylic acid tert-butyl ester]
EC50 [1]: 0.216 µM | EC50 [2]: ≥ 10 µM

N3-(2-chloro-4′-(4-methylpiperazin-1-yl)-6-(trifluoromethyl)biphenyl-4-yl)-1H-1,2,4-triazole-3,5-diamine [Compound 27]
pEC50 [1]: 6.52

COc1cc(-c2c(Cl)cc(Nc3n[nH]c(N)n3)cc2Cl)ccn1 [Compound 6, N3-(3,5-dichloro-4-(2-methoxypyridin-4-yl)phenyl)-1H-1,2,4-triazole-3,5-diamine]
EC50 [1]: 0.33 µM | EC50 [2]: ≥ 10 µM

Nc1nc(Nc2ccc(-c3cccnn3)c(Cl)c2)n[nH]1 [Compound 14, N3-(3-chloro-4-(pyridazin-3-yl)phenyl)-1H-1,2,4-triazole-3,5-diamine]
EC50 [1]: 6.52 µM | EC50 [2]: 15 µM

Nc1nc(Nc2cc(Cl)c(-c3cncc(Cl)c3)c(Cl)c2)n[nH]1 [Compound 43, N-3-[3,5-Dichloro-4-(5-chloro-pyridin-3-yl)-phenyl]-1H-[1,2,4]triazole-3,5-diamine]
EC50 [1]: 0.771 µM | EC50 [2]: 5.3 µM

COc1ncc(-c2c(Cl)cc(Nc3n[nH]c(N)n3)cc2Cl)cn1 [Compound 40, N-3-[3,5-Dichloro-4-(2-methoxy-pyrimidin-5-yl)-phenyl]-1H-[1,2,4]triazole-3,5-diamine]
EC50 [1]: 0.52 µM | EC50 [2]: 3.3 µM

N*3*-(3,5-Dichloro-4-[1,2,4]triazolo[4,3-a]pyridin-3-yl-phenyl)-1H-[1,2,4]triazole-3,5-diamine [Compound 22]
pEC50 [1]: 5.69

CS(=O)(=O)c1cncc(-c2c(Cl)cc(Nc3n[nH]c(N)n3)cc2Cl)c1 [Compound 2, N*3*-[3,5-Dichloro-4-(5-methanesulfonyl-pyridin-3-yl)-phenyl]-1H-[1,2,4]triazole-3,5-diamine]
EC50 [1]: 0.386 µM | EC50 [2]: ≥ 10 µM

tert-Butyl 4-(4-(5-amino-1H-1,2,4-triazol-3-ylamino)-2-chloro-6-(trifluoromethyl)phenyl)-5,6-dihydropyridine-1(2H)-carboxylate [Compound 20]
pEC50 [1]: 7.14 | pEC50 [2]: 4.87

Nc1nc(Nc2cc(Cl)c(-n3ccccc3=O)c(Cl)c2)n[nH]1 [Compound 30, 1-[4-(5-Amino-1H-[1,2,4]triazol-3-ylamino)-2,6-dichloro-phenyl]-1H-pyridin-2-one]
EC50 [1]: 5.75 µM | EC50 [2]: 5.6 µM

Nc1ncc(-c2c(Cl)cc(Nc3n[nH]c(N)n3)cc2Cl)cn1 [Compound 5, N*3*-[4-(2-Amino-pyrimidin-5-yl)-3,5-dichloro-phenyl]-1H-[1,2,4]triazole-3,5-diamine]
EC50 [1]: 0.1 µM | EC50 [2]: 0.4 µM

Nc1nc(Nc2cc(Cl)c(-n3cccn3)c(Cl)c2)n[nH]1 [Compound 17, N3-(3,5-dichloro-4-(1H-pyrazol-1-yl)phenyl)-1H-1,2,4-triazole-3,5-diamine]
EC50 [1]: 4.14 µM | EC50 [2]: 34.6 µM

CNC(=O)c1ccc(-c2c(Cl)cc(Nc3n[nH]c(N)n3)cc2C(F)(F)F)cn1 [Compound 32, 5-(4-(5-amino-1H-1,2,4-triazol-3-ylamino)-2-chloro-6-(trifluoromethyl)phenyl)-N-methylpicolinamide]
EC50 [1]: 0.169 µM | EC50 [2]: 21.8 µM

Nc1n[nH]c(Nc2cc(F)c(-c3ccc(F)nc3)c(C(F)(F)F)c2)n1 [Compound 9, N^5-(3-Fluoro-4-(6-fluoropyridin-3-yl)-5-trifluoromethylphenyl)-1H-[1,2,4]-triazole-3,5-diamine]
EC50 [1]: 0.998 µM | EC50 [2]: 31.1 µM

CC(C)(NS(=O)(=O)c1ccc(-c2c(Cl)cc(Nc3n[nH]c(N)n3)cc2C(F)(F)F)cn1)C(F)(F)F [Compound 25, 5-[4-(5-Amino-1H-[1,2,4]triazol-3-ylamino)-2-chloro-6-trifluoromethyl-phenyl]-pyridine-2-sulfonic acid (2,2,2-trifluoro-1,1-dimethyl-ethyl)-amide]
EC50 [1]: 0.005 µM | EC50 [2]: ≥ 10 µM

N*3*-{3-Chloro-4-[6-(propane-2-sulfonyl)-pyridin-3-yl]-5-trifluoromethyl-phenyl}-1H-[1,2,4]triazole-3,5-diamine [Compound 23]
pEC50 [1]: 6.75 | pEC50 [2]: 5.12

N3-(3-chloro-4-(1-methyl-1H-1,2,4-triazol-5-yl)phenyl)-1H-1,2,4-triazole-3,5 diamine [Compound 16]
pEC50 [1]: 4.46

CC(=O)c1sccc1-c1c(Cl)cc(Nc2n[nH]c(N)n2)cc1Cl [Compound 34, 1-{3-[4-(5-Amino-1H-[1,2,4]triazol-3-ylamino)-2,6-dichloro-phenyl]-thiophen-2-yl}-ethanone]
EC50 [1]: 0.144 µM | EC50 [2]: 1.8 µM

N3-[3-Chloro-4-(1,2,3,6-tetrahydro-pyridin-4-yl)-5-trifluoromethyl-phenyl]-1H-[1,2,4]triazole-3,5-diamine hydrochloride [Compound 21]
pEC50 [1]: 6.25

N3-(3,5-dichloro-4-(1,2,3,6-tetrahydropyridin-4-yl)phenyl)-1H-1,2,4-triazole-3,5-diamine [Compound 19]
pEC50 [1]: 6.30

Nc1nc(Nc2ccc(-n3ccccc3=O)c(Cl)c2)n[nH]1 [Compound 29, 1-[4-(5-Amino-1H-[1,2,4]triazol-3-ylamino)-2-chloro-phenyl]-1H-pyridin-2-one]
EC50 [1]: 13.7 µM | EC50 [2]: 8.1 µM

Nc1nc(Nc2cc(Cl)c(-c3ccncc3)c(Cl)c2)n[nH]1 [Compound 35, N-3-(3,5-Dichloro-4-(pyridin-4-yl)phenyl)-1H-1,2,4-triazole-3,5-diamine]
EC50 [1]: 0.338 µM | EC50 [2]: 2.5 µM

Cn1cc(-c2c(Cl)cc(Nc3n[nH]c(N)n3)cc2Cl)c(C(F)(F)F)n1 [Compound 42, N-3-[3,5-Dichloro-4-(1-methyl-3-trifluoromethyl-1H-pyrazol-4-yl)-phenyl]-1H-[1,2,4]triazole-3,5-diamine]
EC50 [1]: 0.0527 µM | EC50 [2]: 2.4 µM

Nc1n[nH]c(Nc2cc(F)c(-c3cccnc3)c(C(F)(F)F)c2)n1 [Compound 10, N^5-(3-Fluoro-4-(pyridin-3-yl)-5-trifluoromethylphenyl)-1H-[1,2,4]-triazole-3,5-diamine]
EC50 [1]: 1.24 µM | EC50 [2]: 34.2 µM

Nc1nc(Nc2cc(Cl)c(-c3ccnnc3)c(Cl)c2)n[nH]1 [Compound 33, N3-(3,5-dichloro-4-(pyridazin-4-yl)phenyl)-1H-1,2,4-triazole-3,5-diamine]
EC50 [1]: 0.78 µM | EC50 [2]: 10.6 µM

5-[4-(5-Amino-1H-[1,2,4]triazol-3-ylamino)-2-chloro-6-trifluoromethyl-phenyl]-pyridine-2-sulfonic acid tert-butylamide [Compound 24]
pEC50 [1]: 8.10 | pEC50 [2]: 5.39
